From ChEMBL document CHEMBL1926603 (Bioorg Med Chem Lett, 2011)

Columns and labels:
Tyrosinase = biological target: T1, Tyrosinase (Agaricus bisporus, UniProt O42713); test: Inhibition of mushroom tyrosinase activity using L-tyrosin as substrate after 20 mins
T1 sequence (O42713 whole entry): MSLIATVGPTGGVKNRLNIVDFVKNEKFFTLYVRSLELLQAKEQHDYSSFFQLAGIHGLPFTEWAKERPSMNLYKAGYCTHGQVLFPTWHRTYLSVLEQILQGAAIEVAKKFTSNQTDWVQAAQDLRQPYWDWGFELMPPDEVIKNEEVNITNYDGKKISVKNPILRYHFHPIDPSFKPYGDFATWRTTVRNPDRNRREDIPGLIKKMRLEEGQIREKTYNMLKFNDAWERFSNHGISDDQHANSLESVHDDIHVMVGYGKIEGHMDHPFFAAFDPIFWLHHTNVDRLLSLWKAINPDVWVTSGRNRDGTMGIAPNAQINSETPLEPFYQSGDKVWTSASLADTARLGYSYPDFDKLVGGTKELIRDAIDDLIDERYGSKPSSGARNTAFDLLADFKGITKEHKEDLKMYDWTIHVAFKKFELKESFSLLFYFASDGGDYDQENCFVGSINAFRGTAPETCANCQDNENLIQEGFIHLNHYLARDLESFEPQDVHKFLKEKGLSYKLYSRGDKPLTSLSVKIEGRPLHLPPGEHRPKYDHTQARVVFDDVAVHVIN

[1] = system: Radical scavenging activity
Description: Antioxidant activity assessed as DPPH radical scavenging activity after 30 mins

cells [2] = details: Mus musculus, Melan-a, 96 h
Description: Depigmentation activity in mouse Melan-a cells assessed as inhibition of melanin formation after 4 days

cells [3] = details: Mus musculus, Melan-a
Description: Cytotoxicity against mouse Melan-a cells by modified crystal voilet assay

[4] = Ratio of kojic acid IC50 to compound IC50 for depigmentation activity in mouse Melan-a cells assessed as inhibition of melanin formation after 4 days; format: functional

Row | SMILES | IC50 (Tyrosinase) [µM] | IC50 [1] [µM] | IC50 (cells [2]) [µM] | IC50 (cells [3]) [µM] | Ratio IC50 [4]
1 | COc1coc(COC(=O)C2(C)CCc3c(C)c(O)c(C)c(C)c3O2)cc1=O (stereo unspecified) | > 200 | 19.8 | > 200 | > 200 | 
2 | Cc1c(C)c2c(c(C)c1O)CCC(C)(C(=O)OCc1cc(=O)c(O)co1)O2 (racemic) | 5.36 | 11.6 | 17.7 | 56.5 | 90
3 | Cc1c(C)c2c(c(C)c1O)CCC(C)(C(=O)O)O2 (stereo unspecified) [TROLOX] | > 200 | 10.1 | > 300 | 300 | 

Second part, led by results:

Row | IC50 (Tyrosinase) [µM] | IC50 [1] [µM] | IC50 (cells [2]) [µM] | IC50 (cells [3]) [µM] | SMILES | Ratio IC50 [4]
4 | 9.65 | > 200 | > 200 | > 200 | O=C(OCc1cc(=O)c(O)co1)c1ccc2cc(O)ccc2c1 | 
5 | 5.51 | > 200 | > 200 | > 200 | O=C(OCc1cc(=O)c(O)co1)c1ccc(O)cc1 | 
